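Five concentrations, 48 hours, 96-well plates. GI50 marks 50% less growth.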 The source made the active and inactive calls. No stated cut-off is given here; in the data, active = GI50 up to about 1.1 µM and inactive = higher.
Key:
Assay in all cases: NCI-60 cell line screen, 48 h
[1] = system: OVCAR-4
[2] = system: SN12C
[3] = system: RXF 393
[4] = system: HCT-15
[5] = system: 786-0
[6] = system: SK-MEL-28
[7] = system: NCI-H460
[8] = system: COLO 205
[9] = system: IGROV-1
[10] = system: OVCAR-5
[11] = system: A549
[12] = system: UO-31
[13] = system: NCI-H23
[14] = system: NCI-H226
[15] = system: SF-295
[16] = system: MDA-MB-435
[17] = system: PC-3
[18] = system: NCI/ADR-RES
[19] = system: UACC-257

Structure (SMILES) | GI50 [1] | GI50 [2] | GI50 [3] | GI50 [4] | GI50 [5] | GI50 [6] | GI50 [7] | GI50 [8] | GI50 [9] | GI50 [10] | GI50 [11] | GI50 [12] | GI50 [13] | GI50 [14] | GI50 [15] | GI50 [16] | GI50 [17] | GI50 [18] | GI50 [19]
CC(=O)/C=C/c1ccc(C2CC(C)=Nc3c(ccc4c3C(=O)c3ccccc3C4=O)N2)cc1 (stereo unspecified) | > 85.9 µM (inactive) | > 81.5 µM (inactive) | 92 µM (inactive) | 27.2 µM | 54.6 µM (inactive) | > 100 µM (inactive) | 30 µM (inactive) | 60.7 µM (inactive) | 9.12 µM (inactive) | > 86.5 µM (inactive) | > 40.1 µM (inactive) | 4.88 µM (inactive) | > 67.3 µM (inactive) | 32.2 µM (inactive) | > 100 µM (inactive) | – | – | – | –
C=CCNC(=S)N/C=C(\C#N)C(N)=O | > 100 µM (inactive) | > 100 µM (inactive) | > 100 µM (inactive) | > 100 µM | > 100 µM (inactive) | > 100 µM (inactive) | > 100 µM (inactive) | > 100 µM (inactive) | > 100 µM (inactive) | > 100 µM (inactive) | > 100 µM (inactive) | > 100 µM (inactive) | > 100 µM (inactive) | > 100 µM (inactive) | > 100 µM (inactive) | > 100 µM (inactive) | > 100 µM (inactive) | > 100 µM (inactive) | > 100 µM (inactive)
O=C(O)c1ccccc1NS(=O)(=O)c1ccc([N+](=O)[O-])cc1 | > 100 µM (inactive) | > 100 µM (inactive) | > 100 µM (inactive) | > 100 µM | > 100 µM (inactive) | > 100 µM (inactive) | > 100 µM (inactive) | > 100 µM (inactive) | > 100 µM (inactive) | > 100 µM (inactive) | > 100 µM (inactive) | > 100 µM (inactive) | > 100 µM (inactive) | > 100 µM (inactive) | > 100 µM (inactive) | – | – | – | > 100 µM (inactive)
CCOC(=O)CCn1cnc(N)n1 | > 100 µM (inactive) | > 100 µM (inactive) | > 100 µM (inactive) | > 100 µM | > 100 µM (inactive) | > 100 µM (inactive) | > 100 µM (inactive) | > 100 µM (inactive) | > 100 µM (inactive) | > 100 µM (inactive) | > 100 µM (inactive) | > 100 µM (inactive) | > 100 µM (inactive) | > 100 µM (inactive) | > 100 µM (inactive) | – | – | – | > 100 µM (inactive)
COc1cccc2c1[C@H]1OC(=O)NC1CCCCC2 (stereo partly specified) | > 100 µM (inactive) | > 100 µM (inactive) | > 100 µM (inactive) | > 100 µM | > 100 µM (inactive) | > 100 µM (inactive) | > 100 µM (inactive) | > 100 µM (inactive) | > 100 µM (inactive) | > 100 µM (inactive) | > 100 µM (inactive) | > 100 µM (inactive) | > 100 µM (inactive) | > 100 µM (inactive) | > 100 µM (inactive) | – | – | – | > 100 µM (inactive)
CCOC(=O)N1C(=O)C2C3C=CC(C2C1=O)C1C2C(=O)N(C(=O)OCC)C(=O)C2C31 (stereo unspecified) | > 100 µM (inactive) | > 100 µM (inactive) | > 100 µM (inactive) | > 47.2 µM | > 83 µM (inactive) | > 100 µM (inactive) | > 42.7 µM (inactive) | 98.9 µM (inactive) | > 100 µM (inactive) | > 100 µM (inactive) | > 100 µM (inactive) | > 100 µM (inactive) | > 100 µM (inactive) | > 100 µM (inactive) | > 100 µM (inactive) | – | – | – | > 100 µM (inactive)
CC1=C(C)C(=O)c2c(cc3ccc4ccccc4n23)C1=O | > 100 µM (inactive) | > 100 µM (inactive) | > 100 µM (inactive) | > 100 µM | > 100 µM (inactive) | > 100 µM (inactive) | > 100 µM (inactive) | > 100 µM (inactive) | > 100 µM (inactive) | > 100 µM (inactive) | > 100 µM (inactive) | > 100 µM (inactive) | > 100 µM (inactive) | > 100 µM (inactive) | > 100 µM (inactive) | – | – | – | –
C/C(CCN(C)C)=N/O | < 0.01 µM (active) | 14.3 µM (inactive) | 6.05 µM (inactive) | 11.7 µM | 2.81 µM (inactive) | 7.13 µM (inactive) | 1.64 µM (inactive) | 0.597 µM (active) | 18.9 µM (inactive) | 18.7 µM (inactive) | 1.6 µM (inactive) | 16 µM (inactive) | 8.32 µM (inactive) | 30 µM (inactive) | 26.8 µM (inactive) | – | – | – | 15.7 µM (inactive)
COC(=O)NC(=O)c1cn(CCCOC(=O)CCCCCCCCC(=O)OCCCn2cc(C(=O)NC(=O)OC)c(=O)[nH]c2=O)c(=O)[nH]c1=O | > 100 µM (inactive) | > 100 µM (inactive) | 29.4 µM (inactive) | > 100 µM | 88.5 µM (inactive) | > 100 µM (inactive) | > 100 µM (inactive) | – | 85.1 µM (inactive) | > 100 µM (inactive) | > 100 µM (inactive) | > 100 µM (inactive) | 39.3 µM (inactive) | > 100 µM (inactive) | 47.3 µM (inactive) | – | – | – | > 100 µM (inactive)
CN(C)CCCN1c2ccc([N+](=O)[O-])cc2CCc2cc([N+](=O)[O-])ccc21 | – | 15.8 µM (inactive) | 6.98 µM (inactive) | 16.7 µM | 12.1 µM (inactive) | 15.3 µM (inactive) | 15.1 µM (inactive) | 14.9 µM (inactive) | 14.9 µM (inactive) | 13.7 µM (inactive) | 17.9 µM (inactive) | 22.5 µM (inactive) | – | 15.1 µM (inactive) | 15.6 µM (inactive) | 13.4 µM (inactive) | 16.4 µM (inactive) | 14.3 µM (inactive) | 15.2 µM (inactive)
COc1cccc(C2CC(=O)c3cccn32)c1 (stereo unspecified) | > 100 µM (inactive) | > 100 µM (inactive) | > 100 µM (inactive) | > 100 µM | > 100 µM (inactive) | > 100 µM (inactive) | – | > 100 µM (inactive) | > 100 µM (inactive) | > 100 µM (inactive) | 94.6 µM (inactive) | 29.4 µM (inactive) | > 100 µM (inactive) | > 100 µM (inactive) | > 100 µM (inactive) | > 100 µM (inactive) | 73.3 µM (inactive) | > 100 µM (inactive) | > 100 µM (inactive)
CC(C)C1COC(c2ccc3ccccc3c2-c2c(O[Si](C)(C)C(C)(C)C)ccc3ccccc23)=N1 (stereo unspecified) | 14.6 µM (inactive) | 16.6 µM (inactive) | 18.8 µM (inactive) | 22.3 µM | 18.4 µM (inactive) | 19.1 µM (inactive) | 19.6 µM (inactive) | 18.4 µM (inactive) | 20.2 µM (inactive) | 18.4 µM (inactive) | 17.4 µM (inactive) | 14.8 µM (inactive) | 16.3 µM (inactive) | 11.8 µM (inactive) | 17.2 µM (inactive) | – | – | – | 18.2 µM (inactive)
Oc1c([Si](c2ccccc2)(c2ccccc2)c2ccccc2)cc2ccccc2c1-c1c(O)c([Si](c2ccccc2)(c2ccccc2)c2ccccc2)cc2ccccc12 | > 100 µM (inactive) | – | > 100 µM (inactive) | > 100 µM | > 100 µM (inactive) | > 100 µM (inactive) | > 100 µM (inactive) | > 100 µM (inactive) | > 100 µM (inactive) | > 100 µM (inactive) | > 100 µM (inactive) | > 100 µM (inactive) | > 100 µM (inactive) | – | > 100 µM (inactive) | > 100 µM (inactive) | > 100 µM (inactive) | > 100 µM (inactive) | > 100 µM (inactive)
CNC(=O)CCCNC(=O)CCCCC(=O)N(C)C | > 100 µM (inactive) | > 100 µM (inactive) | > 100 µM (inactive) | – | > 100 µM (inactive) | > 100 µM (inactive) | > 100 µM (inactive) | > 100 µM (inactive) | – | > 100 µM (inactive) | > 100 µM (inactive) | > 100 µM (inactive) | > 100 µM (inactive) | – | > 100 µM (inactive) | > 100 µM (inactive) | > 100 µM (inactive) | > 100 µM (inactive) | –
COc1ccc2c(CCNC(C)=O)c(C(C)=O)[nH]c2c1 | > 100 µM (inactive) | > 100 µM (inactive) | > 100 µM (inactive) | > 100 µM | > 100 µM (inactive) | > 100 µM (inactive) | > 100 µM (inactive) | > 100 µM (inactive) | > 100 µM (inactive) | > 100 µM (inactive) | > 100 µM (inactive) | > 100 µM (inactive) | > 10 µM (inactive) | 71.4 µM (inactive) | > 100 µM (inactive) | – | – | – | > 100 µM (inactive)
CSc1nc(NC2OCC(OC(C)=O)C(OC(C)=O)C2OC(C)=O)c2c(OC(C)=O)c(C)c(=O)oc2n1 (stereo unspecified) | > 100 µM (inactive) | > 100 µM (inactive) | > 100 µM (inactive) | > 100 µM | > 100 µM (inactive) | – | > 100 µM (inactive) | > 100 µM (inactive) | > 100 µM (inactive) | > 100 µM (inactive) | > 100 µM (inactive) | > 100 µM (inactive) | > 100 µM (inactive) | > 100 µM (inactive) | > 100 µM (inactive) | – | – | – | > 100 µM (inactive)
COc1cc(C2c3cc4c(cc3OC(NNS(=O)(=O)c3ccc(C)cc3)C2C)OCO4)cc(OC)c1O (stereo unspecified) | 6.32 µM (inactive) | 19 µM (inactive) | 10.5 µM (inactive) | 8.32 µM | 16.6 µM (inactive) | 28.9 µM (inactive) | 5.85 µM (inactive) | 19.2 µM (inactive) | 9.25 µM (inactive) | 33.9 µM (inactive) | 11.7 µM (inactive) | – | 9.89 µM (inactive) | 9.16 µM (inactive) | 3.52 µM (inactive) | 3.21 µM (inactive) | 3.87 µM (inactive) | 6.68 µM (inactive) | 5.06 µM (inactive)
